Results from publication PMC7530896 (Journal of the American Chemical Society, 2020).

Experiments:
PARK7 = assay: Morpholino injections in zebrafish embryos, heart phenotype; assay type: in vivo, zebrafish (Danio rerio); conditions: 2 dpf zebrafish embryos
UCHL1 = assay: Morpholino injections in zebrafish embryos, tail phenotype; assay type: in vivo, zebrafish (Danio rerio); conditions: 2 dpf zebrafish embryos, 2 ng morpholino
[1] = biological target: T1, purified recombinant human UCHL1 (Homo sapiens, UniProt P09936); assay: Probe labeling of purified recombinant UCHL1; assay type: binding; conditions: small-molecule probes: nondenaturing SDS-PAGE (no boiling, no β-mercaptoethanol)
T1 sequence (P09936 1-223): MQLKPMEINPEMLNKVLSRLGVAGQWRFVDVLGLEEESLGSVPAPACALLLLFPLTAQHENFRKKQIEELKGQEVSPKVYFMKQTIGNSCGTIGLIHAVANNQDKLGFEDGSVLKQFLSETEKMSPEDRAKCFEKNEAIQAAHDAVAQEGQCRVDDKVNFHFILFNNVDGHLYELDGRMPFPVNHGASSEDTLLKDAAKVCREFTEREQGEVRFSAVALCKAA

Row | Substance | Tail phenotype % curly tail (UCHL1) | also measured
1 | PARK7MO1: morpholino targeting PARK7 exon 2, 5′-TATGTAAAGTCAGACCTGTTTGTG-3′ (all phosphorodiamidate morpholino (PMO)) | – | abnormal enlarged heart phenotype (PARK7): ~18%
2 | UCHL1MO1: morpholino targeting UCHL1, 5′-TATTTCCATCGGTTTCCACTCCATG-3′ (all phosphorodiamidate morpholino (PMO)) | 53% | –
3 | UCHL1MO2: morpholino targeting UCHL1 exon 4, 5′-GTTCCTTAAACATATCCACTTACCA-3′ (all phosphorodiamidate morpholino (PMO)) | 79% | –
4 | rhodamine-ubiquitin-propargylamide [Rh-Ub-PA] | – | labeling of purified recombinant human UCHL1 [1]: nearly all UCHL1 is labeled
